# Experiment: RP, Thermo Scientific Accucore C18, 150 × 2.1 mm, 2.6 µm, 24 °C, 0.28 mL/min, estimated dead time 0.83 min; A: 90% water + 10% acetonitrile + 10 mM ammonium acetate; B: 20% water + 80% methanol + 10 mM ammonium acetate; gradient (min/%B) 0/0 2.5/0 7.5/30 12.5/30 15/40 20/100 27.5/100
# Settings: stereoisomer not certain
row,SMILES,LC retention time
1,Nc1nc(N)c2nc(-c3ccccc3)c(N)nc2n1,6.51 min
2,CNC(C)Cc1ccc2c(c1)OCO2 (stereo not drawn),5.12 min
3,CC(CCc1ccccc1)NCC(O)c1ccc(O)c(C(N)=O)c1 (stereo not drawn),9 min
4,CCC(=O)C(CC(C)N(C)C)(c1ccccc1)c1ccccc1 (stereo not drawn),16.5 min
5,Cc1cc(=O)n(-c2ccccc2)n1C,5.43 min
6,COc1ccc2c3c1OC1C(O)C=CC4C(C2)N(C)CCC341 (stereo not drawn),4.48 min
7,CC(CN1CCOCC1)C(C(=O)N1CCCC1)(c1ccccc1)c1ccccc1 (stereo not drawn),19 min
8,CC12CCC(=O)C=C1CCC1C2C(=O)CC2(C)C1CCC2(O)C(=O)CO (stereo not drawn),9.34 min
9,COc1ccccc1OCCNCC(O)COc1cccc2[nH]c3ccccc3c12 (stereo not drawn),15.4 min
10,C1CCc2nnnn2CC1,2.93 min
11,CC(C)=CCN1CCC2(C)c3cc(O)ccc3CC1C2C (stereo not drawn),9.19 min
12,O=C1CC2OCC=C3CN4CCC56c7ccccc7N1C5C2C3CC46 (stereo not drawn),6.68 min
13,CC12C=CC(=O)C=C1CCC1C2C(=O)CC2(C)C1CCC2(O)C(=O)CO (stereo not drawn),9.4 min
14,CC(Cc1ccccc1)N(C)Cc1ccccc1 (stereo not drawn),17.8 min
15,CNC(C)C(=O)c1ccc2c(c1)OCO2 (stereo not drawn),3.44 min
16,CC(=O)CC(c1ccccc1)c1c(O)c2ccccc2oc1=O (stereo not drawn),9.01 min
17,CC(C)(C)NCC(O)COc1cccc2c1CCCC2=O (stereo not drawn),7.63 min
18,COC(=O)C1C(OC(=O)c2ccccc2)CC2CCC1N2C (stereo not drawn),8.59 min
19,CCOC(=O)C1(c2ccccc2)CCN(C)CC1,8.8 min
20,CC1(C)OC2CC3C4CCC5=CC(=O)C=CC5(C)C4C(O)CC3(C)C2(C(=O)CO)O1 (stereo not drawn),12.7 min

row,SMILES,LC retention time
1,CN1C2CCC1C(C(=O)O)C(OC(=O)c1ccccc1)C2 (stereo not drawn),4.81 min
2,CNC(C)C(O)c1ccccc1 (stereo not drawn),2.75 min
3,CCC1(O)CCC2C3CCC4=CC(=O)CCC4=C3C=CC21CC (stereo not drawn),18.8 min
4,CC(C)(C#N)c1cc(Cn2cncn2)cc(C(C)(C)C#N)c1,12.2 min
5,CNCCC=C1c2ccccc2CCc2ccccc21,15.6 min
6,CC(C)c1c(CN(C)C(C)Cc2ccccc2)n(C)n(-c2ccccc2)c1=O (stereo not drawn),21.3 min
7,COC(=O)C1=C(C)NC(C)=C(C(=O)OC)C1c1ccccc1[N+](=O)[O-],17.2 min
8,CCCC(C(=O)c1ccc2c(c1)OCO2)N1CCCC1 (stereo not drawn),8.97 min
9,CS(=O)(=O)Nc1ccc([N+](=O)[O-])cc1Oc1ccccc1,17.2 min
10,OCc1cc(C(O)CNCCCCCCOCCCCc2ccccc2)ccc1O (stereo not drawn),17 min
11,Cc1cccc(Nc2ccccc2C(=O)O)c1C,13 min
12,CC(=O)OCC(=O)C12N=C(C)OC1CC1C3CCC4=CC(=O)C=CC4(C)C3C(O)CC12C (stereo not drawn),15.7 min
13,Cc1ccc(C)c(OCCCC(C)(C)C(=O)O)c1,17.9 min
14,CNC(C)Cc1ccccc1 (stereo not drawn),4.66 min
15,CC(N)Cc1ccccc1 (stereo not drawn),3.77 min
16,COC(=O)CCc1ccc(OCC(O)CNC(C)C)cc1 (stereo not drawn),8.1 min
17,CCC(=C(c1ccccc1)c1ccc(OCCN(C)C)cc1)c1ccccc1,21.2 min
18,C=CCc1ccccc1OCC(O)CNC(C)C (stereo not drawn),10.1 min
19,CC(C)(C)NCC(O)COc1cccc2c1CCC(=O)N2 (stereo not drawn),4.22 min
20,C#CCN(C)C(C)Cc1ccccc1 (stereo not drawn),15.1 min

row,SMILES,LC retention time
1,COc1ccc(CC(C)NCC(O)c2ccc(O)c(NC=O)c2)cc1.COc1ccc(CC(C)NCC(O)c2ccc(O)c(NC=O)c2)cc1.O=C(O)C=CC(=O)O (stereo not drawn),7.62 min
2,CC1CC2C(C(O)CC3(C)C2CCC3(O)C(=O)CO)C2(C)C=CC(=O)C=C12 (stereo not drawn),11 min
3,CCCC(=O)Nc1ccc(OCC(O)CNC(C)C)c(C(C)=O)c1 (stereo not drawn),7.07 min
4,CNC(C)Cc1ccccc1OC (stereo not drawn),6.54 min
5,C=CCOc1ccccc1OCC(O)CNC(C)C (stereo not drawn),8.57 min
6,CCNC(C)C(=O)c1ccc(C)cc1 (stereo not drawn),6.99 min
7,CCC(C(=O)OCCN1CCOC(c2ccccc2)C1C)c1ccccc1 (stereo not drawn),21.2 min
8,CNC(C)C(=O)c1ccccc1 (stereo not drawn),2.99 min
9,CCCCCc1cc(O)c2c(c1)OC(C)(C)C1CCC(C(=O)O)=CC21 (stereo not drawn),18.9 min
10,CCN(CC)C(=O)c1cccnc1,5.49 min
11,CC(C)(C)NCC(O)COc1cccc2c1CC(O)C(O)C2 (stereo not drawn),4.97 min
12,CC(C(=O)O)c1cccc(C(=O)c2ccccc2)c1 (stereo not drawn),8.05 min
13,CC(C)(C)NCC(O)COc1nsnc1N1CCOCC1 (stereo not drawn),7.05 min
14,CC1C(c2ccccc2)OCCN1C (stereo not drawn),8.08 min
15,NC(CC(O)COc1cccc2ccccc12)=NO (stereo not drawn),9.66 min
16,CC(Cc1ccccc1)N(C)Cc1ccco1 (stereo not drawn),14.8 min
17,CCCN(CCC)S(=O)(=O)c1ccc(C(=O)O)cc1,8.74 min
18,CNC(C)CC1CCCCC1 (stereo not drawn),8.35 min

# — the RepoRT retention time repository (doi:10.1016/j.chroma.2015.03.063)
